The series concerns human hepatocytes.

One compound from PMC12446476 (Nature Communications, 2025) can be followed below.

Experimental: Pooled human hepatocytes from 10-donor males (BioIVT, West Sussex, UK; MX008001) or 10-donor females (BioIVT, West Sussex, UK; FX008001) were incubated with test compounds (or vehicle) and the compound concentration was measured over time. Samples were incubated at 37 °C and concentrations were assessed after 0, 20-, 40-, 60- and 240-min. Verapamil was included as a control.
The instrument operated in positive ionisation mode (ESI + ) over a m/z range of 80–1000 (n = 1 measure per sample). Data were extracted from chromatograms using calculated monoisotopic accurate masses for protonated molecular ions within 5 ppm windows.

For `Cc1c(CN(C)C(=O)/C=C/c2cnc3c(c2)N[C@H](C)[C@H](OP(=O)([O-])[O-])C(=O)N3)oc2ccccc12.[Na+].[Na+]` [Debio 1453 P], the “Intrinsic clearance (Clint)” value is below 0.44 µL/min/million cells.
